Measurements reported in publication PMC9974930 (Journal of medicinal chemistry, 2023).

Target: T1, recombinant human sEH (HsEH) (Homo sapiens, UniProt P34913)
T1 sequence (P34913 1-555): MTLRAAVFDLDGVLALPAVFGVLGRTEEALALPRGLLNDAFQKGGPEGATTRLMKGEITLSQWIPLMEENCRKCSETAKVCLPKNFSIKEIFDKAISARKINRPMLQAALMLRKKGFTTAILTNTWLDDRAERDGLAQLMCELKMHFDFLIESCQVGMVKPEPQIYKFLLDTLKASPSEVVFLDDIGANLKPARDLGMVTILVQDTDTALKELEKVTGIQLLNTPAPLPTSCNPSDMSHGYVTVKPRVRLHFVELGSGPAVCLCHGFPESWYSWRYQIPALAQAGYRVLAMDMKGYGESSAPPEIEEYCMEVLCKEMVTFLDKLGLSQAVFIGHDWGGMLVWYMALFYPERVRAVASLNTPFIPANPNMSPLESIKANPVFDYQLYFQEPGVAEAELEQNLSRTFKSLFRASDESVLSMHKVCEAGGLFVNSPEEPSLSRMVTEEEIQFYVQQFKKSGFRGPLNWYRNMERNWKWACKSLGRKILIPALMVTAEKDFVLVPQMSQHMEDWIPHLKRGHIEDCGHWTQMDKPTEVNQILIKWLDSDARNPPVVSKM
Assay: biochemical
Details: for LLE (ligand lipophilicity efficiency): LLE = pIC50-cLogP

Compound | LLE (ligand lipophilicity efficiency) | IC50
CCN(CC)C(=O)C1CCN(C(=O)c2ccc(NC(=O)N[C@@]34C[C@@H]5C[C@@](C)(C[C@@](C)(C5)C3)C4)c(F)c2)CC1 [A1, 1-(4-(3-((1r,3R,5S,7r)-3,5-Dimethyladamantan-1-yl)ureido)-3-fluorobenzoyl)-N,N-diethylpiperidine-4-carboxamide] | 4.954 | –
C[C@]12C[C@@H]3C[C@](C)(C1)C[C@@](NC(=O)Nc1ccc(C(=O)N4CCC(C(=O)NCCO)CC4)cc1F)(C3)C2 [A2, 1-(4-(3-((1r,3R,5S,7r)-3,5-Dimethyladamantan-1-yl)ureido)-3-fluorobenzoyl)-N-(2-hydroxyethyl)piperidine-4-carboxamide] | 6.203 | –
CC(O)CNC(=O)C1CCN(C(=O)c2ccc(NC(=O)N[C@@]34C[C@@H]5C[C@@](C)(C[C@@](C)(C5)C3)C4)c(F)c2)CC1 (stereo partly drawn) [A3, 1-(4-(3-((1r,3R,5S,7r)-3,5-Dimethyladamantan-1-yl)ureido)-3-fluorobenzoyl)-N-(2-hydroxypropyl)piperidine-4-carboxamide] | 5.708 | –
C[C@]12C[C@@H]3C[C@](C)(C1)C[C@@](NC(=O)Nc1ccc(C(=O)N4CCCC(C(=O)O)C4)cc1F)(C3)C2 (stereo partly drawn) [A, 1-(4-(3-((1r,3R,5S,7r)-3,5-Dimethyladamantan-1-yl)ureido)-3-fluorobenzoyl)piperidine-3-carboxylic acid] | 4.979 | 4 nM
CCN(CC)C(=O)C1CCCN(C(=O)c2ccc(NC(=O)N[C@]34C[C@@H]5C[C@@](C)(C[C@@](C)(C5)C3)C4)c(F)c2)C1 (stereo partly drawn) [B1, 1-(4-(3-((1r,3R,5S,7S)-3,5-Dimethyladamantan-1-yl)ureido)-3-fluorobenzoyl)-N,N-diethylpiperidine-3-carboxamide] | 5.617 | –
C[C@]12C[C@@H]3C[C@](C)(C1)C[C@](NC(=O)Nc1ccc(C(=O)N4CCCC(C(=O)NCCO)C4)cc1F)(C3)C2 (stereo partly drawn) [B2, 1-(4-(3-((1r,3R,5S,7S)-3,5-dimethyladamantan-1-yl)ureido)-3-fluorobenzoyl)-N-(2-hydroxyethyl)piperidine-3-carboxamide] | 7.069 | –
CC(O)CNC(=O)C1CCCN(C(=O)c2ccc(NC(=O)N[C@]34C[C@@H]5C[C@@](C)(C[C@@](C)(C5)C3)C4)c(F)c2)C1 (stereo partly drawn) [B3, 1-(4-(3-((1r,3R,5S,7S)-3,5-Dimethyladamantan-1-yl)ureido)-3-fluorobenzoyl)-N-(2-hydroxypropyl)piperidine-3-carboxamide] | 6.779 | –
C[C@]12C[C@@H]3C[C@](C)(C1)C[C@@](NC(=O)Nc1ccc(C(=O)N4CCCC(C(=O)N5CCN(CCO)CC5)C4)cc1F)(C3)C2 (stereo partly drawn) [B4, 1-((1r,3R,5S,7r)-3,5-Dimethyladamantan-1-yl)-3-(2-fluoro-4-(3-(4-(2-hydroxyethyl)piperazine-1-carbonyl)piperidine-1-carbonyl)phenyl)urea] | 6.516 | –
CC(C)(C)OC(=O)N1CCN(CCNC(=O)C2CCC(NC(=O)c3ccc(NC(=O)N[C@@]45C[C@@H]6C[C@@](C)(C[C@@](C)(C6)C4)C5)c(F)c3)CC2)CC1 (stereo partly drawn) [C1, Tert-butyl-4-(2-(4-(4-(3-((1r,3R,5S,7r)-3,5-dimethyladamantan-1-yl)ureido)-3-fluorobenzamido)cyclohexane-1-carboxamido)ethyl)piperazine-1-carboxylate] | 2.272 | –
C[C@]12C[C@@H]3C[C@](C)(C1)C[C@@](NC(=O)Nc1ccc(C(=O)NC4CCC(C(=O)N5CCC(CCO)CC5)CC4)cc1F)(C3)C2 (stereo partly drawn) [C2, 4-(3-((1r,3R,5S,7r)-3,5-Dimethyladamantan-1-yl)ureido)-3-fluoro-N-(4-(4-(2-hydroxyethyl)piperidine-1-carbonyl)cyclohexyl)benzamide] | 3.655 | –
C[C@]12C[C@@H]3C[C@](C)(C1)C[C@@](NC(=O)Nc1ccc(C(=O)NC4CCC(C(=O)NCCO)CC4)cc1F)(C3)C2 (stereo partly drawn) [C3, 4-(3-((1r,3R,5S,7r)-3,5-Dimethyladamantan-1-yl)ureido)-3-fluoro-N-(4-((2-hydroxyethyl)carbamoyl)cyclohexyl)benzamide] | 6.100 | –
CC(O)CNC(=O)C1CCC(NC(=O)c2ccc(NC(=O)N[C@@]34C[C@@H]5C[C@@](C)(C[C@@](C)(C5)C3)C4)c(F)c2)CC1 (stereo partly drawn) [C4, 4-(3-((1r,3R,5S,7r)-3,5-Dimethyladamantan-1-yl)ureido)-3-fluoro-N-(4-((2-hydroxypropyl)carbamoyl)cyclohexyl)benzamide] | 5.438 | –
C[C@]12C[C@@H]3C[C@](C)(C1)C[C@@](NC(=O)Nc1ccc(C(=O)NC4CCC(C(=O)N(CCO)CCO)CC4)cc1F)(C3)C2 (stereo partly drawn) [C5, N-(4-(Bis(2-hydroxyethyl)carbamoyl)cyclohexyl)-4-(3-((1r,3R,5S,7r)-3,5-dimethyladamantan-1-yl)ureido)-3-fluorobenzamide] | 5.869 | –
C[C@]12C[C@@H]3C[C@](C)(C1)C[C@@](NC(=O)Nc1ccc(C(=O)NC4CCC(C(N)=O)CC4)cc1F)(C3)C2 (stereo partly drawn) [C6, N-(4-Carbamoylcyclohexyl)-4-(3-((1r,3R,5S,7r)-3,5-dimethyladamantan-1-yl)ureido)-3-fluorobenzamide] | 5.746 | –
C[C@]12C[C@@H]3C[C@](C)(C1)C[C@@](NC(=O)Nc1ccc(C(=O)NC4CCC(C(=O)NC(CO)CO)CC4)cc1F)(C3)C2 (stereo partly drawn) [C7, N-(4-((1,3-Dihydroxypropan-2-yl)carbamoyl)cyclohexyl)-4-(3-((1r,3R,5S,7r)-3,5-dimethyladamantan-1-yl)ureido)-3-fluorobenzamide] | 6.555 | –
C[C@]12C[C@@H]3C[C@](C)(C1)C[C@@](NC(=O)Nc1ccc(C(=O)NC4CCC(C(=O)NC(CO)(CO)CO)CC4)cc1F)(C3)C2 (stereo partly drawn) [C8, N-(4-((1,3-Dihydroxy-2-(hydroxymethyl)propan-2-yl)carbamoyl)cyclohexyl)-4-(3-((1r,3R,5S,7r)-3,5-dimethyladamantan-1-yl)ureido)-3-fluorobenzamide] | 7.653 | –
C[C@]12C[C@@H]3C[C@](C)(C1)C[C@@](NC(=O)Nc1ccc(CN4CCCC(C(N)=O)C4)cc1F)(C3)C2 (stereo partly drawn) [D1, 1-(4-(3-((1r,3R,5S,7r)-3,5-Dimethyladamantan-1-yl)ureido)-3-fluorobenzyl)piperidine −3-carboxamide] | 6.464 | –
CN(C)C(=O)C1CCCN(Cc2ccc(NC(=O)N[C@@]34C[C@@H]5C[C@@](C)(C[C@@](C)(C5)C3)C4)c(F)c2)C1 (stereo partly drawn) [D2, 1-(4-(3-((1r,3R,5S,7r)-3,5-Dimethyladamantan-1-yl)ureido)-3-fluorobenzyl)-N,N-dimethylpiperidine-3-carboxamide] | 5.354 | –
CCN(CC)C(=O)C1CCCN(Cc2ccc(NC(=O)N[C@@]34C[C@@H]5C[C@@](C)(C[C@@](C)(C5)C3)C4)c(F)c2)C1 (stereo partly drawn) [D3, 1-(4-(3-((1r,3R,5S,7r)-3,5-Dimethyladamantan-1-yl)ureido)-3-fluorobenzyl)-N,N-diethylpiperidine-3-carboxamide] | 4.957 | –
CC(O)CNC(=O)C1CCCN(Cc2ccc(NC(=O)N[C@@]34C[C@@H]5C[C@@](C)(C[C@@](C)(C5)C3)C4)c(F)c2)C1 (stereo partly drawn) [D4, 1-(4-(3-((1r,3R,5S,7r)-3,5-Dimethyladamantan-1-yl)ureido)-3-fluorobenzyl)-N-(2-hydroxypropyl)piperidine-3-carboxamide] | 6.119 | –
